Several values for one entry are separate records, joined by “and”; a condition that tells them apart may be missing. Equal values may be shown once. Read-outs that look alike come from different tables or passages of the source.
Assays:
[1] = test system: LPS-induced microglia activation; experiment: Image-based assay of LPS-induced microglia activation (HTS and dose response); format: cell-based, rat; conditions: for inhibition at 10 µM: Rattus norvegicus, Microglia, read-out: LPS % inhibition
[2] = test system: fibrin- and LPS-induced microglia activation; experiment: cells; format: cell-based, rat
primary rat microglia [3] = test system: primary rat microglia
primary rat microglia [4] = experiment: Cell toxicity (dead cells, size <150 μm2) in LPS assay; conditions: primary microglia HTS, LPS stimulation; decreased size (<150 μm^2) as marker of toxicity
[5] = test system: fibrin-induced microglia activation; experiment: Image-based assay of fibrin-induced microglia activation (HTS and dose response); format: cell-based, rat; conditions: for inhibition at 10 µM: Rattus norvegicus, Microglia, read-out: Fibrin % inhibition
primary rat microglia [6] = test system: primary rat microglia; remark: listed apart in the source
primary rat microglia [7] = experiment: Cell toxicity (dead cells, size <150 μm2) in coated fibrin (cFib) assay; conditions: primary microglia HTS;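 also: share of dead cells sized under 150 µm2 at 10 µM in fibrin-stimulated microglia HTS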
[8] = 48 h, primary microglia HTS, LPS stimulation, increased cell size (>800 μm^2) as marker of activation
[9] = primary microglia HTS, LPS stimulation, compounds at 10 μM
[10] = classification by fibrin and LPS inhibition, HTS at 10 μM
[11] = quadrant by fibrin and LPS inhibition in HTS of 1907 compounds
[12] = primary microglia HTS, fibrin stimulation, compounds at 10 μM
[13] = primary microglia HTS, fibrin stimulation, increased cell size (>800 μm^2) as marker of activation
[14] = primary microglia HTS, LPS stimulation, compounds at 10 μM, 10 µM
[15] = classification by fibrin and LPS inhibition in HTS
[16] = primary microglia HTS, fibrin stimulation, cell size >800 μm2 as marker of activation

Compound: C[C@]12CC[C@@H]3c4ccc(O)cc4CC[C@H]3[C@@H]1CCC2=O [Estrone]
- inhibition at 10 µM [1, 8]: 106%
- inhibition at 10 µM [1, 9]: 16%
- Quadrant (FIG. 5b) [2, 10]: Q4
- Quadrant (FIG. 5b) [2, 11]: Q2
- LPS % cell toxicity (primary rat microglia [3]; rat): 0%
- LPS % cell toxicity (primary rat microglia [4]): 25%
- inhibition at 10 µM [5, 12]: 35%
- inhibition at 10 µM [5, 13]: 106%

Compound: C[C@@H]1C[C@H]2[C@@H]3CCC4=CC(=O)C=C[C@]4(C)[C@@]3(F)[C@@H](O)C[C@]2(C)[C@@]1(O)C(=O)COP(=O)(O)O [Dexamethasone Phosphate]
- Quadrant (FIG. 5b) [2, 11]: Q2
- LPS % cell toxicity (primary rat microglia [3]; rat): 2%
- Fibrin % cell toxicity (primary rat microglia [6]; rat): 5%

Compound: Betamethasone sodium phosphate [reference compound]
- Cherry-picked Hit (Suppl. Table 7) [2]: HIT (key: HIT: Hits were defined as molecules that exhibited greater than 50% inhibition of either fibrin or LPS activation)
- Hit [2]: HIT (key: HIT: Hits were defined as molecules that exhibited greater than 50% inhibition of either fibrin or LPS activation)
- Quadrant (FIG. 5b) [2]: Q2
- LPS % cell toxicity (primary rat microglia [3]): 3%
- Fibrin % cell toxicity (primary rat microglia [6]): 2%

Compound: CS(=O)(=O)CCNCc1ccc(-c2ccc3ncnc(Nc4ccc(OCc5cccc(F)c5)c(Cl)c4)c3c2)o1 [Lapatinib]
- Quadrant (FIG. 5b) [2, 11]: Q4
- LPS % cell toxicity (primary rat microglia [3]; rat): 0%
- Fibrin % cell toxicity (primary rat microglia [6]; rat): 1%

Compound: CC(=O)[O-].[Hg+][c]1ccccc1 [Phenylmercuric Acetate]
- LPS % cell toxicity (primary rat microglia [3]; rat): 80%
- Fibrin % cell toxicity (primary rat microglia [6]; rat): 82%

Compound: C=C1C[C@@H]2[C@H](CC[C@]3(C)C(=O)CC[C@@H]23)[C@@]2(C)C=CC(=O)C=C12 [Exemestane]
- inhibition at 10 µM [1, 9]: 21%
- LPS % inhibition [1, 14]: 34%
- Quadrant (FIG. 5b) [2, 10]: Q4
- inhibition at 10 µM [5, 12]: 22%
- Fibrin % inhibition ([5]; primary microglia HTS, fibrin stimulation, compounds at 10 μM, 10 µM): 31%
- Fibrin % cell toxicity (primary rat microglia [6]; rat): 1%

Compound: Clc1ccc(CSC(Cn2ccnc2)c2ccc(Cl)cc2Cl)cc1 (stereo not shown) [Sulconazole]
- Quadrant (FIG. 5b) [2]: Q4
- LPS % cell toxicity (primary rat microglia [3]; rat): 1%
- Fibrin % cell toxicity (primary rat microglia [6]; rat): 1%

Compound: CC(=O)c1ccc2c(c1)N(CCCN1CCC(CCO)CC1)c1ccccc1S2 [Piperacetazine]
- inhibition at 10 µM ([1]; 48 h): 48%
- Quadrant (FIG. 5b) [2, 15]: Q4
- inhibition at 10 µM [5, 16]: -32%
- Fibrin % cell toxicity (primary rat microglia [6]; rat): 0%

Compound: CCC(C)n1ncn(-c2ccc(N3CCN(c4ccc(OCC5COC(Cn6cncn6)(c6ccc(Cl)cc6Cl)O5)cc4)CC3)cc2)c1=O (stereo not shown) [Itraconazole]
- Quadrant (FIG. 5b) [2, 11]: Q4
- Fibrin % cell toxicity (primary rat microglia [6]; rat): 1%

Compound: CC1(C)S[C@@H]2[C@H](NC(=O)[C@H](N)c3ccc(O)cc3)C(=O)N2[C@H]1C(=O)O [Amoxicillin]
- inhibition at 10 µM [1]: 12%
- Quadrant (FIG. 5b) [2]: Q4
- inhibition at 10 µM [5]: -14%
- Fibrin % cell toxicity (primary rat microglia [6]; rat): 0%

Compound: CC(=O)O[C@]1(C(C)=O)CC[C@H]2[C@@H]3C=C(Cl)C4=CC(=O)[C@@H]5C[C@@H]5[C@]4(C)[C@H]3CC[C@@]21C [Cyproterone Acetate]
- LPS % inhibition [1, 14]: 12% and 3%
- Quadrant (FIG. 5b) [2, 10]: Q4
- Fibrin % cell toxicity (primary rat microglia [6]; rat): 1%

Compound: Nc1nc(Cl)nc2c1ncn2[C@@H]1O[C@H](CO)[C@@H](O)[C@@H]1F [Clofarabine]
- LPS % inhibition ([1]; primary HTS, 10 μM, LPS-stimulated primary microglia): −2% and 8%
- Quadrant (FIG. 5b) ([2]; primary HTS, 10 μM): Q4
- Fibrin % cell toxicity (primary rat microglia [6]; rat): 1%

Compound: O=C(O)CN(CCN(CC(=O)O)CC(=O)O)CC(=O)O [Edetic Acid]
- Quadrant (FIG. 5b) [2]: Q4
- Fibrin % cell toxicity (primary rat microglia [6]; rat): 0%

Compound: Pyrethrins
- LPS % cell toxicity (primary rat microglia [3]): 0%
- Fibrin % cell toxicity (primary rat microglia [6]): 0%

Compound: C#C[C@]1(O)CC[C@H]2[C@@H]3CCC4=Cc5oncc5C[C@]4(C)[C@H]3CC[C@@]21C [Danazol]
- Fibrin % cell toxicity (primary rat microglia [7]; fibrin assay, dead cells (size <150 μm2), compounds at 10 μM): 1%
- Fibrin % cell toxicity (primary rat microglia [7]; fibrin stimulation, decreased size (<150 μm^2) as marker of toxicity): 28%
- inhibition at 10 µM [1, 8]: 99%
- inhibition at 10 µM [1, 9]: 5%
- Quadrant (FIG. 5b) [2, 10]: Q4
- Quadrant (FIG. 5b) [2, 11]: Q2
- LPS % cell toxicity (primary rat microglia [3]; rat): 0%
- LPS % cell toxicity (primary rat microglia [4]): 14%
- inhibition at 10 µM [5, 12]: -14%
- inhibition at 10 µM [5, 13]: 105%

Compound: O=C(O)c1ccccc1O [Salicylic Acid]
- inhibition at 10 µM ([1]; 48 h): 14%
- Quadrant (FIG. 5b) [2, 15]: Q4
- inhibition at 10 µM [5, 16]: -32%
- Fibrin % cell toxicity (primary rat microglia [6]; rat): 0%
